Reference: patent publication US7741338B2, “Macrolides” (Novartis AG, priority 1998, dated 2010)

What was measured:
localized GvHD = assay: localized GvHD, inhibition of lymph node swelling; format: in vivo; details: dosage of 3 mg
Procedure: (§1) In the localized GvHD, maximal inhibition (70-80%) of lymph node swelling is achieved with a dosage of 3 mg with 40-O-(2-hydroxy)ethyl-rapamycin in crystalline form.

[1] = in vitro and in vivo immunosuppressive activity; details: crystalline form compared with amorphous form
Procedure: as §1

[2] = storage stability, sum of by-products and degradation products after 1 week storage; format: physicochemical; details: 50° C. in open flask
Description: The sum of by-products and degradation products in % after 1 week storage are as follows: […]

Row | sum of by-products and degradation products [2] | SMILES | maximal inhibition of lymph node swelling (localized GvHD) | in vitro and in vivo immunosuppressive activity [1]
1 |  | CO[C@H]1C[C@@H]2CC[C@@H](C)[C@@](O)(O2)C(=O)C(=O)N2CCCC[C@H]2C(=O)O[C@H]([C@H](C)C[C@@H]2CC[C@@H](OCCO)[C@H](OC)C2)CC(=O)[C@H](C)/C=C(\C)[C@@H](O)[C@@H](OC)C(=O)[C@H](C)C[C@H](C)/C=C/C=C/C=C/1C [40-O-(2-hydroxy)ethyl-rapamycin] | 70-80% | comparable to that of the amorphous form
2 | >10% | CO[C@H]1C[C@@H]2CC[C@@H](C)[C@@](O)(O2)C(=O)C(=O)N2CCCC[C@H]2C(=O)O[C@H]([C@H](C)C[C@@H]2CC[C@@H](OCCO)[C@H](OC)C2)CC(=O)[C@H](C)/C=C(\C)[C@@H](O)[C@@H](OC)C(=O)[C@H](C)C[C@H](C)/C=C/C=C/C=C/1C [Without BHT, 40-O-(2-hydroxy)ethyl-rapamycin] |  | 
